# Assay results from patent publication US12679848B2, “Plasma kallikrein inhibitors” (Merck Sharp & Dohme LLC, priority 2020, dated 2026).
# pIC50: −log10 of the molar value.
# Columns and labels:
# [1] = target: T1, Human plasma kallikrein (Homo sapiens, UniProt P03952); assay: Plasma Kallikrein Assay; format: biochemical; details: purified Human plasma kallikrein 0.5 nM, substrate Acetyl-K-P-R-AFC, HEPES pH 7.4; read-out: PKal IC50
# T1 construct: yields a heavy chain (371 amino acids) and a light chain (248 amino acids); The active site of plasma kallikrein is contained in the light chain; purchased Enzyme Research Laboratories
# T1 sequence (P03952 391-638 limits assumed): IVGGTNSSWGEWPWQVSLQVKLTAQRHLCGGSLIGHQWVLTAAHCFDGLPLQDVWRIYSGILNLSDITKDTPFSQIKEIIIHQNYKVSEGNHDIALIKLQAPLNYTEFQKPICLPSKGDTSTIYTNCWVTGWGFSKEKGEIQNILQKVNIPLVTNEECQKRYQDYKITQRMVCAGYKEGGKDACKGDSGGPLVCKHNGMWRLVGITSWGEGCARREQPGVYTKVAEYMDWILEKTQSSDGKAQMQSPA
# T1 sequence (P03952 20-390 partner limits assumed): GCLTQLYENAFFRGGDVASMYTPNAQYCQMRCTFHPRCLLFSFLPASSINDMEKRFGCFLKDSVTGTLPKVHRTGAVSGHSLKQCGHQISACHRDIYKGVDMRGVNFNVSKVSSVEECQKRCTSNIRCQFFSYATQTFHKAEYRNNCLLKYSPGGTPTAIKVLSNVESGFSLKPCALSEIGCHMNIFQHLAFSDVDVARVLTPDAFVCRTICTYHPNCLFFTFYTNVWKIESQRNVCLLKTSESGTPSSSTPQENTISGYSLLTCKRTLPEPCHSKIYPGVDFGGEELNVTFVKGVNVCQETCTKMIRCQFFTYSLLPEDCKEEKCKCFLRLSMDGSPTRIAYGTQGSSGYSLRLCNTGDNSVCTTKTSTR
# Procedure, shortened: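 Purified human plasma kallikrein at 0.5 nM final with substrate Acetyl-K-P-R-AFC at […], in 50 mM HEPES pH 7.4, 150 mM NaCl, 5 mM CaCl2, 0.1% PEG 8000, at rt or 37° C after enzyme-inhibitor equilibration. IC50 from four-parameter logistic fit of fluorescence rate; Ki via Cheng-Prusoff.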
# [2] = target: human factor XIa (Homo sapiens, UniProt P03951); assay: Factor XIa Assay; format: biochemical; details: human factor XIa 0.04 nM, substrate GPR-AFC, 30 min pre-incubation, 25° C., pH 7.4; read-out: FXIa IC50
# human factor XIa, sequence (P03951 388-625 limits assumed): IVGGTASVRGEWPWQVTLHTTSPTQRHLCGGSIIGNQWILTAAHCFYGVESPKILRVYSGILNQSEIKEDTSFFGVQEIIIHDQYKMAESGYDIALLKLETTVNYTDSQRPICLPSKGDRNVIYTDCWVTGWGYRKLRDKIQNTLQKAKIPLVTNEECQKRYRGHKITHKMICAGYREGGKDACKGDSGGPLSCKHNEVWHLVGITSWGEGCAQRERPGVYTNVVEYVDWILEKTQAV
# human factor XIa, sequence (P03951 19-387 partner limits assumed): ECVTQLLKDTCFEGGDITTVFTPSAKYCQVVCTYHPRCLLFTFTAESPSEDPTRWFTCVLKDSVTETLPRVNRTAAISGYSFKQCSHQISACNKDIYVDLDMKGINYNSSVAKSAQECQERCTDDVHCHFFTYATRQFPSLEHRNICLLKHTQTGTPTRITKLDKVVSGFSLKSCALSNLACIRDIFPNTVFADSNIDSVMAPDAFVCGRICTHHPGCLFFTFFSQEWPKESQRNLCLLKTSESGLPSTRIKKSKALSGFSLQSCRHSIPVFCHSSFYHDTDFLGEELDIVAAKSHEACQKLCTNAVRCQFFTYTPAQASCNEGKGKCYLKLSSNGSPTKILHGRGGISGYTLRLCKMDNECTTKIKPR
pIC50 [1],pIC50 [2],SMILES
8.64,6.60,"COc1ccccc1Cn1ncc(C(=O)N2CCC[C@@]3(C2)OC(=O)Nc2ccc(Cl)c(F)c23)c1N [Example 40, (R)-1'-(5-Amino-1-(2-methoxybenzyl)-1H-pyrazole-4-carbonyl)-6-chloro-5-fluorospiro[benzo[d][1,3]oxazine-4,3'-piperidin]-2(1H)-one]"
7.94,6.13,"CN(C)c1ccccc1Cn1ncc(C(=O)N2CCC[C@@]3(C2)OC(=O)Nc2ccc(Cl)c(F)c23)c1N [Example 41, (R)-1'-(5-Amino-1-(2-(dimethylamino)benzyl)-1H-pyrazole-4-carbonyl)-6-chloro-5-fluorospiro[benzo[d][1,3]oxazine-4,3'-piperidin]-2(1H)-one]"
8.85,6.30,"Nc1c(C(=O)N2CCC[C@@]3(C2)OC(=O)Nc2ccc(Cl)c(F)c23)cnn1Cc1ccc(Cl)cc1 [Example 42, (R)-1'-(5-Amino-1-(4-chlorobenzyl)-1H-pyrazole-4-carbonyl)-6-chloro-5-fluorospiro[benzo[d][1,3]oxazine-4,3'-piperidin]-2(1H)-one]"
8.10,6.04,"Nc1c(C(=O)N2CCC[C@@]3(C2)OC(=O)Nc2ccc(Cl)c(F)c23)cnn1Cc1ccc(C(F)(F)F)nc1 [Example 43, (R)-1'-(5-Amino-1-((6-(trifluoromethyl)pyridin-3-yl)methyl)-1H-pyrazole-4-carbonyl)-6-chloro-5-fluorospiro[benzo[d][1,3]oxazine-4,3'-piperidin]-2(1H)-one]"
8.96,6.60,"Nc1c(C(=O)N2CCC[C@@]3(C2)OC(=O)Nc2ccc(Cl)c(F)c23)cnn1Cc1ccccc1Cl [Example 44, (R)-1'-(5-Amino-1-(2-chlorobenzyl)-1H-pyrazole-4-carbonyl)-6-chloro-5-fluorospiro[benzo[d][1,3]oxazine-4,3'-piperidin]-2(1H)-one]"
9.15,6.81,"Cc1cccc(Cn2ncc(C(=O)N3CCC[C@@]4(C3)OC(=O)Nc3ccc(Cl)c(F)c34)c2N)c1 [Example 45, (R)-1'-(5-Amino-1-(3-methylbenzyl)-1H-pyrazole-4-carbonyl)-6-chloro-5-fluorospiro[benzo[d][1,3]oxazine-4,3'-piperidin]-2(1H)-one]"
8.92,6.78,"Nc1c(C(=O)N2CCC[C@@]3(C2)OC(=O)Nc2ccc(Cl)c(F)c23)cnn1C1(c2ccc(F)cc2)CCC1 [Example 46, (R)-1'-(5-Amino-1-(1-(4-fluorophenyl)cyclobutyl)-1H-pyrazole-4-carbonyl)-6-chloro-5-fluorospiro[benzo[d][1,3]oxazine-4,3'-piperidin]-2(1H)-one]"
8.20,6.14,"Nc1c(C(=O)N2CCC[C@@]3(C2)OC(=O)Nc2ccc(Cl)c(F)c23)cnn1C1(C(F)(F)F)CCC1 [Example 47, (R)-1'-(5-Amino-1-(1-(trifluoromethyl)cyclobutyl)-1H-pyrazole-4-carbonyl)-6-chloro-5-fluorospiro[benzo[d][1,3]oxazine-4,3'-piperidin]-2(1H)-one]"
7.88,6.29,"Nc1c(C(=O)N2CCC[C@@]3(C2)OC(=O)Nc2ccc(Cl)c(F)c23)cnn1CC(F)(F)C(F)(F)F [Example 48, (R)-1'-(5-Amino-1-(2,2,3,3,3-pentafluoropropyl)-1H-pyrazole-4-carbonyl)-6-chloro-5-fluorospiro[benzo[d][1,3]oxazine-4,3'-piperidin]-2(1H)-one]"
7.77,5.53,"CC(C)(n1ncc(C(=O)N2CCC[C@@]3(C2)OC(=O)Nc2ccc(Cl)c(F)c23)c1N)C(F)(F)F [Example 49, (R)-1'-(5-Amino-1-(1,1,1-trifluoro-2-methylpropan-2-y1)-1H-pyrazole-4-carbonyl)-6-chloro-5-fluorospiro[benzo[d][1,3]oxazine-4,3'-piperidin]-2(1H)-one]"
8.08,6.16,"Nc1c(C(=O)N2CCC[C@@]3(C2)OC(=O)Nc2ccc(Cl)c(F)c23)cnn1C1(C(F)(F)F)CC1 [Example 50, (R)-1'-(5-Amino-1-(1-(trifluoromethyl)cyclopropyl)-1H-pyrazole-4-carbonyl)-6-chloro-5-fluorospiro[benzo[d][1,3]oxazine-4,3'-piperidin]-2(1H)-one]"
8.01,6.00,"Nc1c(C(=O)N2CCC[C@@]3(C2)OC(=O)Nc2ccc(Cl)c(F)c23)cnn1Cc1cncnc1 [Example 51, (R)-1'-(5-Amino-1-(pyrimidin-5-ylmethyl)-1H-pyrazole-4-carbonyl)-6-chloro-5-fluorospiro[benzo[d][1,3]oxazine-4,3'-piperidin]-2(1H)-one]"
8.04,6.01,"Nc1c(C(=O)N2CCC[C@@]3(C2)OC(=O)Nc2ccc(Cl)c(F)c23)cnn1C1(C(F)(F)F)CC(F)(F)C1 [Example 52, (R)-1'-(5-Amino-1-(3,3-difluoro-1-(trifluoromethyl)cyclobutyl)-1H-pyrazole-4-carbonyl)-6-chloro-5-fluorospiro[benzo[d][1,3]oxazine-4,3'-piperidin]-2(1H)-one]"
8.06,5.95,"Nc1c(C(=O)N2CCC[C@@]3(C2)OC(=O)Nc2ccc(Cl)c(F)c23)cnn1C1(C(F)(F)F)CCOCC1 [Example 53, (R)-1'-(5-Amino-1-(4-(trifluoromethyl)tetrahydro-2H-pyran-4-y1)-1H-pyrazole-4-carbonyl)-6-chloro-5-fluorospiro[benzo[d][1,3]oxazine-4,3'-piperidin]-2(1H)-one]"
8.47,6.22,"Nc1c(C(=O)N2CCC[C@@]3(C2)OC(=O)Nc2ccc(Cl)c(F)c23)cnn1Cc1cnccn1 [Example 54, (R)-1'-(5-Amino-1-(pyrazin-2-ylmethyl)-1H-pyrazole-4-carbonyl)-6-chloro-5-fluorospiro[benzo[d][1,3]oxazine-4,3'-piperidin]-2(1H)-one]"
8.70,6.38,"Nc1c(C(=O)N2CCC[C@@]3(C2)OC(=O)Nc2ccc(Cl)c(F)c23)cnn1Cc1cccnc1 [Example 55, (R)-1'-(5-Amino-1-(pyridin-3-ylmethyl)-1H-pyrazole-4-carbonyl)-6-chloro-5-fluorospiro[benzo[d][1,3]oxazine-4,3'-piperidin]-2(1H)-one]"
7.40,5.50,"COc1ccc(-n2ncc(C(=O)N3CCC[C@@]4(C3)OC(=O)Nc3ccc(Cl)c(F)c34)c2N)cc1 [Example 58, (R)-1'-(5-Amino-1-(4-methoxyphenyl)-1H-pyrazole-4-carbonyl)-6-chloro-5-fluorospiro[benzo[d][1,3]oxazine-4,3'-piperidin]-2(1H)-one]"
7.59,5.94,"Nc1c(C(=O)N2CCC[C@@]3(C2)OC(=O)Nc2ccc(Cl)c(F)c23)cnn1-c1ccc2cn[nH]c2c1 [Example 59, (R)-1'-(5-Amino-1-(1H-indazol-6-yl)-1H-pyrazole-4-carbonyl)-6-chloro-5-fluorospiro[benzo[d][1,3]oxazine-4,3'-piperidin]-2(1H)-one]"
8.10,6.22,"Nc1c(C(=O)N2CCC[C@@]3(C2)OC(=O)Nc2ccc(Cl)c(F)c23)cnn1-c1ccnc2ccc(F)cc12 [Example 60, (R)-1'-(5-Amino-1-(6-fluoroquinolin-4-y1)-1H-pyrazole-4-carbonyl)-6-chloro-5-fluorospiro[benzo[d][1,3]oxazine-4,3'-piperidin]-2(1H)-one]"
7.37,5.76,"Cc1ncccc1-n1ncc(C(=O)N2CCC[C@@]3(C2)OC(=O)Nc2ccc(Cl)c(F)c23)c1N [Example 61, (R)-1'-(5-Amino-1-(2-methylpyridin-3-y1)-1H-pyrazole-4-carbonyl)-6-chloro-5-fluorospiro[benzo[d][1,3]oxazine-4,3'-piperidin]-2(1H)-one]"
7.64,6.07,"Nc1c(C(=O)N2CCC[C@@]3(C2)OC(=O)Nc2ccc(Cl)c(F)c23)cnn1-c1ncccc1F [Example 62, (R)-1'-(5-Amino-1-(3-fluoropyridin-2-y1)-1H-pyrazole-4-carbonyl)-6-chloro-5-fluorospiro[benzo[d][1,3]oxazine-4,3'-piperidin]-2(1H)-one]"
7.54,5.80,"Cc1c(CO)cccc1-n1ncc(C(=O)N2CCC[C@@]3(C2)OC(=O)Nc2ccc(Cl)c(F)c23)c1N [Example 63, (R)-1'-(5-Amino-1-(3-(hydroxymethyl)-2-methylphenyl)-1H-pyrazole-4-carbonyl)-6-chloro-5-fluorospiro[benzo[d][1,3]oxazine-4,3'-piperidin]-2(1H)-one]"
7.55,5.88,"Cc1ccccc1-n1ncc(C(=O)N2CCC[C@@]3(C2)OC(=O)Nc2ccc(Cl)c(F)c23)c1N [Example 64, (R)-1'-(5-Amino-1-(o-toly1)-1H-pyrazole-4-carbonyl)-6-chloro-5-fluorospiro[benzo[d][1,3]oxazine-4,3'-piperidin]-2(1H)-one]"
7.43,6.80,"Nc1c(C(=O)N2CCC[C@@]3(C2)OC(=O)Nc2ccc(Cl)c(F)c23)cnn1-c1ccc(Cl)cc1Cl [Example 65, (R)-1'-(5-Amino-1-(2,4-dichlorophenyl)-1H-pyrazole-4-carbonyl)-6-chloro-5-fluorospiro[benzo[d][1,3]oxazine-4,3'-piperidin]-2(1H)-one]"
7.41,6.62,"Cc1ccc(-n2ncc(C(=O)N3CCC[C@@]4(C3)OC(=O)Nc3ccc(Cl)c(F)c34)c2N)c(F)c1 [Example 66, (R)-1'-(5-Amino-1-(2-fluoro-4-methylpheny1)-1H-pyrazole-4-carbonyl)-6-chloro-5-fluorospiro[benzo[d][1,3]oxazine-4,3'-piperidin]-2(1H)-one]"
